Data taken from patent US20150216870A1, “Combination of PI3K Inhibitor and C-Met Inhibitor” (Novartis AG, priority 2012, published 2015).
“Also recorded” adds a separate entry of the source.

How the values were obtained:
EBC-1 = assay: Cell viability (CellTiterGlo) combination dose matrix in EBC-1; format: cell-based, human; conditions: combination with c-Met inhibitor, 72 h, excluding highest concentration, 0 no inhibition, 1 = 100% inhibition/stasis, 2 = cell death
Procedure: (§3) Compound stocks of both compounds are individually prepared in DMSO. Compounds are serially diluted using a Tecan dispenser to cover a ˜1000× range of concentrations. […] Both single agent and combinations are tested at multiple concentrations, along with controls and one self-cross.
(§4) The cell lines used in this study are purchased from American Type Cell Collection, including human non small cell lung cancer cell lines EBC-1 (which bears c-Met amplification), NCI-H1993 (which bears c-MET amplified), NCI-H1648 (which bears c-Met amplification), NCI-H1573 (which bears c-Met amplification and KRAS mutation) and HCC2935 (EGFR mutation). All cell lines are maintained in their respective culture medium as specified by the provider.
(§5) For the assessment of combination effects, cells are seeded into 384-well plates at 500 cells/well and incubated overnight. […]
(§6) Effects of single agents as well as their combination on cell viability is assessed after 72 hours of incubation at 37° C./5% CO2 by quantification of cellular ATP levels (CellTiterGlo, Promega) using 25 μL reagent/well and n=2 replicate plates per condition. The number/viability of cells at time of compound addition is likewise assessed and used to estimate the population doubling time of a cell line.
(§7) For untreated and treated levels U and T, inhibition is calculated using the formula I=1−T/U, which ranges from 0% to 100% for complete inhibition. […]
(§8) The Loewe expectation [Loewe S., Ergebn Physiol 27: 47-187 (1928)) is calculated at each dose pair CX,Y by finding the inhibition ILoewe such that (CX/ICX)+(CY/ICY)=1, and ICX,Y are the effective concentrations at ILoewe for the fitted single agent curves, using numerical optimization [Berenbaum M C, J Theor Biol 114: 413-431 (1985)]. The “synergy score” S is calculated by averaging the difference between Idata and ILoewe across all the tested combination dose points, excluding the highest concentration point in the dose matrix, which is most likely to be dominated by drug off-target effects. […]

HCC2935 = assay: Cell viability (CellTiterGlo) combination dose matrix in HCC2935; format: cell-based, human; conditions: combination with c-Met inhibitor, 72 h, excluding highest concentration
Procedure: as §3, §4, §5, §6, §7, §8

NCI-H1573 = assay: Cell viability (CellTiterGlo) combination dose matrix in NCI-H1573; format: cell-based, human; conditions: combination with c-Met inhibitor, 72 h, excluding highest concentration
Procedure: as §3, §4, §5, §6, §7, §8

NCI-H1993 = assay: Cell viability (CellTiterGlo) combination dose matrix in NCI-H1993; format: cell-based, human; conditions: combination with c-Met inhibitor, 72 h, excluding highest concentration
Procedure: as §3, §4, §5, §6, §7, §8

NCI-H1648 = assay: Cell viability (CellTiterGlo) combination dose matrix in NCI-H1648; format: cell-based, human; conditions: combination with c-Met inhibitor, 72 h, excluding highest concentration
Procedure: as §3, §4, §5, §6, §7, §8

[1] = test system: NCI-H1993 human non-small cell lung carcinoma xenograft; assay: NCI-H1993 xenograft tumor growth inhibition and tumor growth delay; format: in vivo, athymic nude mice; conditions: COMPOUND D 30 mg/kg p.o. qd to end
From the text: In this experiment, the NCI-H1993 human non-small cell lung carcinoma xenograft model is used to assess the anti-tumor efficacy of the PI3K inhibitor COMPOUND D and c-Met inhibitor 2-fluoro-N-methyl-4-[7-quinolin-6-yl-methyl)-imidazo[1,2-b][1,2,4]triazin-2yl]benzamide as single agents or in combination. NCI-H1993 tumor cells obtained from the American Type Culture Collection (ATCC) are derived from a lymph node metastasis of a patient having a stage 3A lung adenocarcinoma and a history of smoking.
(§1) Female athymic nude mice (Crl:NU (Ncr)-Foxn1^nu, Charles River) are 8 weeks old, and have a body weight (BW) range of 16.1-26.2 g, on D1 of the study. The animals are fed ad libitum water (reverse osmosis, 1 ppm CI) and NIH 31 Modified and Irradiated Lab Diet® consisting of 18.0% crude protein, 5.0% crude fat, and 5.0% crude fiber. The mice are housed on irradiated Enrich-O'cobs™ Laboratory Animal Bedding in static microisolators on a 12-hour light cycle at 20-22° C. (68-72° F.) and 40-60% humidity.
The NCI-H1993 tumor line is obtained from the American Type Culture Collection and maintained at DRS_NC in RPMI-1640 medium containing 100 unites/penicillin G sodium, 100 µg/mL streptomycin sulfate, 25 µg/mL gentamicin, 10% fetal bovine serum, and 2 mM glutamine. The tumor cells are cultured in tissue culture flasks in a humidified incubator at 37° C. in an atmosphere of 5% CO2 and 95% air.
The tumor cells used for implementation are harvested during log phase growth and resuspended in cold PBS containing 50% Matrigel™ (BD Biosciences). Each mouse is injected subcutaneously in the right flank with 1×10^7 cells (0.2 mL cell suspension). Tumors are calipered in two dimensions to monitor growth as their mean volume approached the desired 200-250 mm^3 range. Tumor size, in mm^3, was calculated from: Tumor Volume=(width^2×length)/2, where width and length (in mm) are measurements of the tumor. Tumor weight can be estimated with the assumption that 1 mg is equivalent to 1 mm^3 of tumor volume. Fourteen days after tumor cell implantation, on D1 of the study, mice with individual tumor volumes of 172-256 mm^3 are sorted into groups of ten mice, with group mean tumor volumes of 206-215 mm^3.
The c-Met inhibitor 2-fluoro-N-methyl-4-[7-quinolin-6-yl-methyl)-imidazo[1,2-b][1,2,4]triazin-2yl]benzamide (HCl salt, 84.98% free base) is stored at 4° C. and is added to a volume of deionized water equal to 1/2 of the final volume and sonicated until dissolved to obtain a uniform 2× suspension. An equal volume of 0.5% methylcellulose: 0.1% Tween® 80 is added to provide a 1.77 mg/mL solution with final vehicle concentrations of 0.25% methylcellulose and 0.05% Tween® 80 in deionized water (Vehicle 1). Fresh solutions are prepared once daily for the […]. dosing and stored at room temperature until the a.m. dosing.
COMPOUND D is suspended at 3.0 mg/mL in 0.5% methylcellulose in deionized water. The vehicle is added in portions equal to 1/3 of the final volume. The suspension is vortexed after each addition, and then finally probe sonicated on ice to prepare a homogeneous white suspension. A fresh suspension is prepared weekly, stored at 4° C., and re-suspended prior to dosing.
The c-MET inhibitor and the vehicle is each administered via oral gavage (p.o.) twice daily for the duration of the study (b.i.d. to end). COMPOUND D is administered via oral gavage (p.o.) once daily for the duration of the study (qd to end). In combination therapies, COMPOUND D is dosed within 30 minutes after the c-Met inhibitor. In all groups, the dosing volume of 10 mL/kg (0.2 mL/20 g mouse) is scaled to the weight of each animal as determined on the day of dosing, except on weekends when the previous BW is carried forward.
The groups of nude mice (n=10/group) are treated as follows. Group 1 receive Vehicle 1 and Vehicle 2 and serve as controls for the study. […] Group 3 receives 30 mg/kg COMPOUND D monotherapy once daily for the duration of the study (qd to end).

[2] = Toxicity (body weight, deaths) in NCI-H1993 xenograft study; format: in vivo; conditions: COMPOUND D 30 mg/kg p.o. qd to end
Procedure: (§2) Animals are weighed on Days 1-5, on each treatment day (except weekends), and twice weekly thereafter, until the end of the study. The maximum group mean body weight (BW) loss is determined for the interval between D1 and D20 as well as for the entire study. Group mean BW nadir determinations exclude measurements taken after more than 50% of the assessable mice in the group have exited the study, and also exclude any animal that was classified as a non-treatment related (NTR) death during the study. Acceptable toxicity for the maximum tolerated dose (MTD) is defined as a group mean BW loss of less than 15% during the test, and not more than one TR death among ten animals. Any animal with BW losses exceeding 15% for three consecutive measurements, or with a BW loss exceeding 20% for one measurement, are euthanized, and classified as a TR death unless it was the first death in the group. A death is classified as NTR if there was no evidence that the death is related to treatment side effects and the death occurs more than 14 days after dosing ended. NTR deaths are categorized as NTRa (due to accident or error), NTRu (due to unknown causes), or NTRm (necropsy-confirmed tumor dissemination by invasion and/or metastasis). To conserve animals while providing maximum information, the first death in a group was classified as NTRu; such an NTR death was to be reclassified as TR if two subsequent TR deaths are recorded in the same group.

[3] = test system: U-87 MG human glioblastoma xenograft; assay: U-87 MG xenograft tumor growth inhibition and tumor growth delay; format: in vivo, nude mice; conditions: temozolomide 100 mg/kg p.o. qd x5
Procedure: In this experiment, the U-87 MG human glioblastoma xenograft model is used to assess the anti-tumor efficacy of the PI3K inhibitor COMPOUND C and c-Met inhibitor 2-fluoro-N-methyl-4-[7-quinolin-6-yl-methyl)-imidazo[1,2-b][1,2,4]triazin-2yl]benzamide as single agents or in combination. U-87 MG tumor cells obtained from the National Cancer Institute are reported to be homozygous for likely oncogenic variants of CDKN2A, CDKN2C, CDKN2a, and PTEN; no mutations are detected in MET, PIK3CA, or 58 other genes that are frequently altered in neoplastic cells; and HGF expressing.
Mice are treated daily for 21 days with 17.7 and 35.3 mg/kg of the c-Met inhibitor and 32.7 mg/kg COMPOUND C monotherapies, and with the c-Met inhibitor/COMPOUND C dual therapy at 17.7:32.7. An c-Met inhibitor/COMPOUND C combination at the 58.8:5.4 mg/kg dose ratio was included in the study. The control mice received both vehicles, and a standard preclinical temozolomide regimen monitored tumor model performance. The oral treatments began on Day 1 (D1) in nude mice with established subcutaneous tumors. Each animal was euthanized when its tumor reached the predetermined 2000 mm3 endpoint volume, or on D60, whichever came first. The study was terminated on D51. […] Overall efficacy was determined from the times required for tumors to progress to the volume endpoint, and from D51 survival and regression rates. This report describes the methods and results of the U87MG-e326 tumor growth delay experiment.
as §1, with “The” for “Female athymic nude mice (Crl:NU (Ncr)-Foxn1^nu, Charles River) are 8 weeks old, and have a body weight (BW) range of 16.1-26.2 g, on D1 of the study. The”
The U-87 MG tumor line is obtained from the American Type Culture Collection and maintained by serial engraftment in nude mice. A tumor fragment (1 mm^3) is implanted subcutaneously into the right flank of each test mouse. Tumors are calipered in two dimensions to monitor growth as their mean volume approached the desired 100-150 mm^3 range. Tumor size, in mm^3, was calculated from: Tumor Volume=(width^2×length)/2, where width and length (in mm) are measurements of the tumor. Tumor weight can be estimated with the assumption that 1 mg is equivalent to 1 mm^3 of tumor volume. Fourteen days after tumor cell implantation, on D1 of the study, mice with individual tumor volumes of 63-196 mm^3 are sorted into seven groups, with group mean tumor volumes of 122-127 mm^3.
The c-Met inhibitor 2-fluoro-N-methyl-4-[7-quinolin-6-yl-methyl)-imidazo[1,2-b][1,2,4]triazin-2yl]benzamide (di-HCl salt, 84.98% free base) is stored at 4° C. and is added to deionized water at 2× the final concentration and sonicated until dissolved. An equal volume of 0.5% methylcellulose and 0.1% Tween® 80 in deionized water is added to provide a 5.884 mg/mL dosing solution in 0.25% methylcellulose and 0.05% Tween® 80 in deionized water (Vehicle 1). Portions of this solution are diluted with Vehicle 1 to provide 3.53 and 1.765 mg/mL dosing solutions.
COMPOUND C (HCl salt, 91.85% free base) is stored at −20° C. and is added to 1% Tween® 80 in deionized water and sonicated to obtain a uniform suspension at 2× the final concentration. […] The 0.544 mg/mL dosing suspension is obtained by diluting a portion of the first suspension with Vehicle 2.

[4] = Toxicity (deaths) in U-87 MG xenograft study; format: in vivo; conditions: temozolomide 100 mg/kg p.o. qd x5
From the text: as §2, with “the study. Group mean” for “the study. The maximum group mean body weight (BW) loss is determined for the interval between D1 and D20 as well as for the entire study. Group mean”, “the group had exited the” for “the group have exited the”, “and also excluded any animal” for “and also exclude any animal”, “classified as an NTR death during” for “classified as a non-treatment related (NTR) death during”, “classified as Non-Treatment Related (NTR) if there” for “classified as NTR if there”

## Cn1c(=O)n(-c2ccc(C(C)(C)C#N)cc2)c2c3cc(-c4cnc5ccccc5c4)ccc3ncc21 [COMPOUND A, 2-methyl-2-[4-(3-methyl-2-oxo-8-quinolin-3-yl-2,3-dihydro-imidazo[4,5-c]quinolin-1-yl)-phenyl]-propionitrile]
EBC-1
  MaxGI (GImax, combination effectiveness): 1.90
HCC2935
  MaxGI (GImax, combination effectiveness): 1.36
NCI-H1573
  MaxGI (GImax, combination effectiveness): 1.90
NCI-H1993
  MaxGI (GImax, combination effectiveness): 1.33
NCI-H1648
  MaxGI (GImax, combination effectiveness): 1.72

## Cc1nc(NC(=O)N2CCC[C@H]2C(N)=O)sc1-c1ccnc(C(C)(C)C(F)(F)F)c1 [COMPOUND D, (S)-Pyrrolidine-1,2-dicarboxylic acid 2-amide 1-({4-methyl-5-[2-(2,2,2-trifluoro-1,1-dimethyl-ethyl)-pyridin-4-yl]-thiazol-2-yl}-amide)]
EBC-1
  MaxGI (GImax, combination effectiveness): 1.87
[1]
  % TGD: −4%
  D20 tumor growth inhibition / activity (in words): non-significant median tumor growth acceleration; also recorded: not significantly active (inactive)
  T-C: -1.1 days
[1]; D20
  T/C or T/T0: 117%
[1]; endpoint 600 mm3
  Median TTE: 24.0 days
[1]; number of animals
  Regression: PR: 1 PR
[1]; vs control Group 1
  overall survival (in words): non-significantly briefer overall survival than control
HCC2935
  MaxGI (GImax, combination effectiveness): 0.77
[2]
  Deaths: (0)
  tolerability (in words): Well-tolerated
NCI-H1573
  MaxGI (GImax, combination effectiveness): 0.57
NCI-H1993
  MaxGI (GImax, combination effectiveness): 1.21
NCI-H1648
  MaxGI (GImax, combination effectiveness): 1.37

## Cn1nnc2c(C(N)=O)ncn2c1=O [Temozolomide, reference compound]
[3]
  % TGD: 51%
[3]; D13
  T/C or T/T0: 48%
[3]; endpoint 2000 mm3
  Median TTE: 17.7 days
[3]; number of animals
  Regress.: 0
[4]
  Deaths: (0)
